From PMC9237807 (Pharmacology Research & Perspectives, 2022)

Assays:
human β1‐adrenoceptor [1] = molecular target: T1, human β1‐adrenoceptor (Homo sapiens, UniProt P08588); assay: [3H]-DHA competition kinetic binding assay; conditions: for koff / kon: human β1AR, CHO membranes, HBSS + 100 μM GTP, 37°C, ~3 nM [3H]-DHA
human β1‐adrenoceptor [2] = molecular target: T1, human β1‐adrenoceptor; assay: [3H]-DHA equilibrium competition binding
human β1‐adrenoceptors = assay: Simulated association and dissociation of β-blockers from kinetic parameters; conditions: 30 × K d (β1), free ligand removed at 5 min
human β2‐adrenoceptors = assay: as above; conditions: 30 × K d (β1), free ligand removed at 5 min
human β1‐adrenoceptor [3] = molecular target: T1, human β1‐adrenoceptor; assay: [3H]-DHA association kinetics; type: binding; conditions: human β1AR, 37°C
[4] = global fit, 3 radioligand concentrations

T1 sequence (P08588 whole entry): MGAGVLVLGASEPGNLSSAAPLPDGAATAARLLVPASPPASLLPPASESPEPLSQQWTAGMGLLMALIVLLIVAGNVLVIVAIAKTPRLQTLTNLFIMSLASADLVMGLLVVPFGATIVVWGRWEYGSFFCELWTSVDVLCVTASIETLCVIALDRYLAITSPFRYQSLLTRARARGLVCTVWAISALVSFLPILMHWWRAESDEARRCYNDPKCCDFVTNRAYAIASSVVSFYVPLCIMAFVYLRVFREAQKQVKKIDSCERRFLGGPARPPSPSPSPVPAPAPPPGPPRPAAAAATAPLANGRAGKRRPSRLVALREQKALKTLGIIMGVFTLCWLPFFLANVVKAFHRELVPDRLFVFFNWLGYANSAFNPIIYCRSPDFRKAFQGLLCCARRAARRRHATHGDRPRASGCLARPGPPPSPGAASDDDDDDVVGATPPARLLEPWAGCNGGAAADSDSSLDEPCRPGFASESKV

| Kd (human β1‐adrenoceptor [1]) | koff (human β1‐adrenoceptor [1]) | kon (human β1‐adrenoceptor [1]) | Ki (human β1‐adrenoceptor [2]) | Compound | other results |
| --- | --- | --- | --- | --- | --- |
| 0.1 ± 0.0004 nM | 0.00183 s⁻¹ | 1.85e+07 M⁻¹ s⁻¹ | 0.269 nM | CC(C)(Cc1c[nH]c2ccccc12)NCC(O)COc1ccccc1C#N (centres unmarked) [Bucindolol] | – |
| 22.4 nM | 0.00283 ± 0.0005 s⁻¹ | 7.68 ± 0.79 × 10^6 M^−1 min^−1 | 33.9 nM | CC(C)(C)NCC(O)COc1cccc2c1CC(O)C(O)C2 (centres unmarked) [Nadolol, nadolol] | – |
| – | – | – | – | CC(C)NC[C@H](O)COc1ccc(CC(N)=O)cc1 [Atenolol, (S)‐(−) atenolol] | time until receptor binding is fully reversed (simulation) (human β1‐adrenoceptors; β1 and β2 adrenoceptors simulated): ≤ 5 min |
| – | – | – | – | CC(C)NCC(O)COc1ccc(COCCOC(C)C)cc1 (centres unmarked) [Bisoprolol, bisoprolol hemifumarate] | time for full dissociation from the β2‐adrenoceptor (simulation) (human β2‐adrenoceptors): a matter of seconds; time for full dissociation from the β1‐adrenoceptor (simulation) (human β1‐adrenoceptors): approximately 40 min |
| – | – | – | – | 1‐[4,6‐propyl‐^3H]dihydroalprenolol [[^3H]‐DHA] | k off of radioligand (human β1‐adrenoceptor [3]; [4]): 0.00767 ± 0.0005 s⁻¹; k on of radioligand (human β1‐adrenoceptor [3]; [4]): 5.28 ± 0.48 × 10^8 M^−1 min^−1; Kd (human β1‐adrenoceptor [3]; read-out: K d of radioligand, from the kinetic fit): 0.94 nM |
